# Assay results: ChEMBL document CHEMBL1201862, “PubChem BioAssay data set” (2004)
#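 Exposure lasted 48 hours, with cells grown in 96-well plates and compounds tested at five concentrations. GI50 = concentration required for 50% inhibition of growth.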 Activity calls are given as the source filed them. No stated cut-off is given here; in the data, active = GI50 up to about 1.1 µM and inactive = higher. Starred links: 1 amine or outer side, 2 acyl side, 3 side chain; linkers in the order of their positions; H or OH if unused. Positions of bridges follow the written chain, without caps; N, C: chain ends. Non-standard residues stand in square brackets, D forms with d. Residues, ends and D or L forms follow the SMILES beside them. Chains are numbered I, II in the order given. ξ: configuration not given here. X42 = N=C(N)NCCC[C@H](NC(=N)CCCCCCC(=N)N[C@@H](CCCNC(=N)N)C(=O)[*:2])C(=O)[*:1]; Oic(3aξ,7aξ) = O=C(O)[C@@H]1CC2CCCCC2N1; Igl = N[C@H](C(=O)O)C1Cc2ccccc2C1; Hyp = O=C(O)[C@@H]1C[C@@H](O)CN1
# Legend:
# Test in all cases: DTP human tumour cell line panel, 48 h
# HT-29 = test system: HT-29
# MDA-MB-435 = test system: MDA-MB-435
# MDA-MB-231 = test system: MDA-MB-231
# SNB-75 = test system: SNB-75
# Malme-3M = test system: Malme-3M
# K562 = test system: K562
# OVCAR-5 = test system: OVCAR-5
# SK-MEL-28 = test system: SK-MEL-28
# MCF7 = test system: MCF7
# MOLT-4 = test system: MOLT-4
# HCT-116 = test system: HCT-116
# SF-295 = test system: SF-295
# U-251 = test system: U-251
# NCI-H522 = test system: NCI-H522
# CCRF-CEM = test system: CCRF-CEM
# LOX IMVI = test system: LOX IMVI
# SK-OV-3 = test system: SK-OV-3
# OVCAR-4 = test system: OVCAR-4
# SF-539 = test system: SF-539
# A498 = test system: A498
SMILES,GI50 (HT-29),GI50 (MDA-MB-435),GI50 (MDA-MB-231),GI50 (SNB-75),GI50 (Malme-3M),GI50 (K562),GI50 (OVCAR-5),GI50 (SK-MEL-28),GI50 (MCF7),GI50 (MOLT-4),GI50 (HCT-116),GI50 (SF-295),GI50 (U-251),GI50 (NCI-H522),GI50 (CCRF-CEM),GI50 (LOX IMVI),GI50 (SK-OV-3),GI50 (OVCAR-4),GI50 (SF-539),GI50 (A498)
COC(=O)C12CCCN1CCC2,> 100 µM (inactive),> 100 µM (inactive),> 100 µM (inactive),> 100 µM (inactive),> 100 µM (inactive),> 100 µM (inactive),> 100 µM (inactive),> 100 µM (inactive),> 100 µM (inactive),> 100 µM (inactive),> 100 µM (inactive),> 100 µM (inactive),> 100 µM (inactive),> 100 µM (inactive),> 100 µM (inactive),> 100 µM (inactive),> 100 µM (inactive),> 100 µM (inactive),–,–
COc1ccc(/N=C2/C(=N/c3ccc(OC)cc3)N(c3ccccc3)C(=S)N2N=C=C2Sc3ccccc3N2C)cc1,> 100 µM (inactive),> 100 µM (inactive),25.5 µM (inactive),–,> 100 µM (inactive),> 100 µM (inactive),> 100 µM (inactive),> 100 µM (inactive),> 100 µM (inactive),> 100 µM (inactive),88.1 µM (inactive),> 100 µM (inactive),88.7 µM (inactive),> 100 µM (inactive),–,–,> 100 µM (inactive),–,> 100 µM (inactive),–
COc1ccc(-c2csc3c2-n2cccc2C3=O)cc1,0.028 µM (active),0.0132 µM (active),< 0.0375 µM (active),0.0964 µM (active),28.8 µM (inactive),< 0.0285 µM (active),34 µM (inactive),0.406 µM (active),0.18 µM (active),0.0444 µM (active),0.0461 µM (active),0.0395 µM (active),0.0326 µM (active),–,0.0242 µM (active),0.0458 µM (active),0.216 µM (active),2.07 µM (inactive),0.0304 µM (active),0.698 µM (active)
CCC(=O)NI1OC(=O)c2ccccc21,> 100 µM (inactive),> 100 µM (inactive),> 100 µM (inactive),> 100 µM (inactive),–,48.5 µM (inactive),> 100 µM (inactive),> 100 µM (inactive),> 100 µM (inactive),> 100 µM (inactive),> 100 µM (inactive),> 100 µM (inactive),> 100 µM (inactive),15.9 µM (inactive),40.9 µM (inactive),> 100 µM (inactive),> 100 µM (inactive),> 100 µM (inactive),> 100 µM (inactive),> 100 µM (inactive)
CCOS(C)(=O)=O [METHANESULFONIC ACID ETHYL ESTER],> 100 µM (inactive),> 100 µM (inactive),> 100 µM (inactive),–,> 100 µM (inactive),> 100 µM (inactive),> 100 µM (inactive),> 100 µM (inactive),> 100 µM (inactive),> 100 µM (inactive),> 100 µM (inactive),> 100 µM (inactive),> 100 µM (inactive),> 100 µM (inactive),> 100 µM (inactive),> 100 µM (inactive),> 100 µM (inactive),> 100 µM (inactive),> 100 µM (inactive),> 100 µM (inactive)
Cn1c(=O)c2c(nc(Nc3ccc(Cl)cc3)n3c(=O)n(-c4ccccc4)c(=O)n23)n(C)c1=O,> 100 µM (inactive),> 100 µM (inactive),> 100 µM (inactive),15.5 µM (inactive),–,> 100 µM (inactive),> 100 µM (inactive),> 100 µM (inactive),> 100 µM (inactive),> 100 µM (inactive),> 100 µM (inactive),> 100 µM (inactive),> 100 µM (inactive),> 100 µM (inactive),> 100 µM (inactive),> 100 µM (inactive),–,> 100 µM (inactive),> 100 µM (inactive),> 100 µM (inactive)
"N=C(N)NCCC[C@H](NC(=O)[C@@H]1CC2CCCCC2N1C(=O)[C@@H](NC(=O)[C@H](CO)NC(=O)[C@@H](NC(=O)CNC(=O)[C@@H]1CCCN1C(=O)[C@H](CCCNC(=N)N)NC(=O)[C@H](CCCNC(=N)N)NC(=N)CCCCCCC(=N)N[C@@H](CCCNC(=N)N)C(=O)N[C@@H](CCCNC(=N)N)C(=O)N1CCC[C@H]1C(=O)N1C[C@H](O)C[C@H]1C(=O)NCC(=O)N[C@H](C(=O)N[C@@H](CO)C(=O)N[C@H](C(=O)N1C2CCCCC2C[C@H]1C(=O)N[C@@H](CCCNC(=N)N)C(=O)O)C1Cc2ccccc2C1)C1Cc2ccccc2C1)C1Cc2ccccc2C1)C1Cc2ccccc2C1)C(=O)O (stereo partly drawn) (I: RP[Hyp]G[Igl]S[Igl][Oic(3aξ,7aξ)]R-OH / II: RPG[Igl]S[Igl][Oic(3aξ,7aξ)]R-OH; linker I:N-II:N via X42)",0.138 µM (active),1.99 µM (inactive),1.69 µM (inactive),–,2.31 µM (inactive),0.993 µM (active),3.48 µM (inactive),2.01 µM (inactive),1.99 µM (inactive),0.413 µM (active),4.38 µM (inactive),1.86 µM (inactive),2.48 µM (inactive),5.89 µM (inactive),3.11 µM (inactive),2.24 µM (inactive),1.83 µM (inactive),2.73 µM (inactive),2.36 µM (inactive),–
O=C1NC(N2CCOCC2)=N/C1=C\c1ccc(O)cc1,> 100 µM (inactive),> 100 µM (inactive),> 100 µM (inactive),15.7 µM (inactive),> 100 µM (inactive),–,> 100 µM (inactive),> 100 µM (inactive),> 100 µM (inactive),> 100 µM (inactive),> 100 µM (inactive),> 100 µM (inactive),> 100 µM (inactive),16.4 µM (inactive),> 100 µM (inactive),> 100 µM (inactive),> 100 µM (inactive),> 100 µM (inactive),> 100 µM (inactive),–
Nc1c(-c2ccccc2)c2ccc([N+](=O)[O-])cc2c(=O)n1-c1cccc(C(=O)O)c1,> 100 µM (inactive),> 100 µM (inactive),> 100 µM (inactive),> 100 µM (inactive),–,> 100 µM (inactive),> 100 µM (inactive),> 100 µM (inactive),> 100 µM (inactive),> 100 µM (inactive),> 100 µM (inactive),> 100 µM (inactive),> 100 µM (inactive),> 100 µM (inactive),94.6 µM (inactive),> 100 µM (inactive),> 100 µM (inactive),> 100 µM (inactive),> 100 µM (inactive),> 100 µM (inactive)
NNC(=O)c1cc([N+](=O)[O-])ccc1NC(=O)C12CC3CC(CC(C3)C1)C2,25.8 µM (inactive),14.3 µM (inactive),5.01 µM (inactive),–,16.5 µM (inactive),7.48 µM (inactive),13.4 µM (inactive),–,23.1 µM (inactive),3.32 µM (inactive),7.74 µM (inactive),14 µM (inactive),6.92 µM (inactive),3 µM (inactive),2.27 µM (inactive),2.93 µM (inactive),2.7 µM (inactive),2.62 µM (inactive),13.5 µM (inactive),–
CCOC(=O)c1csc(NC(=O)CN2CCOCC2)n1,> 100 µM (inactive),> 100 µM (inactive),> 100 µM (inactive),> 100 µM (inactive),–,> 100 µM (inactive),> 100 µM (inactive),> 100 µM (inactive),> 100 µM (inactive),17.1 µM (inactive),–,> 100 µM (inactive),> 100 µM (inactive),–,> 100 µM (inactive),> 100 µM (inactive),> 100 µM (inactive),> 100 µM (inactive),> 100 µM (inactive),> 100 µM (inactive)
CCCCCCCCC[C@@H]1C[C@@H]2CCC3C(C(=O)OC)=C(C)N=C(N1)N32 (stereo partly drawn),4.25 µM (inactive),2.25 µM (inactive),5.13 µM (inactive),5.71 µM (inactive),10.5 µM (inactive),5.25 µM (inactive),18 µM (inactive),21 µM (inactive),3.72 µM (inactive),8.22 µM (inactive),4.25 µM (inactive),9.4 µM (inactive),3.27 µM (inactive),2.96 µM (inactive),> 100 µM (inactive),9.86 µM (inactive),10.6 µM (inactive),6.93 µM (inactive),3.29 µM (inactive),–
CC(=O)OC[C@H]1O[C@@H](O[C@H]2[C@H](OC(C)=O)C=CO[C@@H]2COC(C)=O)C(OC(C)=O)[C@H]2OC(C)(C)O[C@H]21 (stereo partly drawn),> 100 µM (inactive),48.1 µM (inactive),> 100 µM (inactive),30.5 µM (inactive),> 100 µM (inactive),> 100 µM (inactive),> 100 µM (inactive),> 100 µM (inactive),> 100 µM (inactive),> 100 µM (inactive),> 100 µM (inactive),> 100 µM (inactive),> 100 µM (inactive),17.1 µM (inactive),62.8 µM (inactive),> 100 µM (inactive),> 100 µM (inactive),> 100 µM (inactive),> 100 µM (inactive),–
O=C(C/C(=N/O)C(F)(F)F)c1cccs1,> 100 µM (inactive),> 100 µM (inactive),> 100 µM (inactive),> 100 µM (inactive),–,> 100 µM (inactive),> 100 µM (inactive),> 100 µM (inactive),> 100 µM (inactive),> 100 µM (inactive),> 100 µM (inactive),> 100 µM (inactive),> 100 µM (inactive),–,> 100 µM (inactive),> 100 µM (inactive),76.2 µM (inactive),> 100 µM (inactive),> 100 µM (inactive),> 100 µM (inactive)
